In patent publication US5886026A, “Anti-angiogenic compositions and methods of use” (priority 1994, dated 1999):

Key:
neutrophils [1] = assay: Neutrophil chemiluminescence in response to plasma opsonized CPPD or zymosan; type: cell-based, human
Experimental: CPPD (triclinic) crystals were prepared. The size distribution of the crystals was approximately 33% less than 10 μm, 58% between 10 and 20 μm and 9% greater than 20 μm. Crystals prepared under the above conditions are pyrogen free and crystals produced under sterile, pyrogen free conditions produced the same magnitude of neutrophil response as crystals prepared under normal, non-sterile laboratory conditions.
(§1) All experiments that studied neutrophil responses to crystals or zymosan in the presence of paclitaxel were performed using plasma opsonized CPPD or zymosan. Opsonization of crystals or zymosan was done with 50% heparinized plasma at a concentration of 75 mg of CPPD or 12 mg of zymosan per ml of 50% plasma. Crystals or zymosan were incubated with plasma for 30 min. at 37° C. and then washed in excess HBSS.
All chemiluminescence studies were performed at a cell concentration of 5,000,000 cells/ml in HBSS with CPPD (50 mg/ml). In all experiments 0.5 ml of cells was added to 25 mg of CPPD or 0.5 mg of zymosan in 1.5 ml capped Eppendorf tubes. 10 μl of luminol dissolved in 25% DMSO in HBSS was added to a final concentration of 1 μM and the samples were mixed to initiate neutrophil activation by the crystals or zymosan. Chemiluminescence was monitored using an LKB Luminometer (Model 1250.) at 37° C. with shaking immediately prior to measurements to resuspend the crystals or zymosan. Control tubes contained cells, drug and luminol (crystals absent).

synoviocytes = assay: 3H-Thymidine incorporation into synoviocytes; type: cell-based
Experimental: At these times, […] of ^3 H-thymidine was added to the cell culture and incubated for 2 hours at 37° C. The cells were placed through a cell harvester, washed through a filter, the filters were cut, and the amount of radiation contained in the filter sections determined. Once the amount of thymidine incorporated into the cells was ascertained, it was used to determine the rate of cell proliferation. This experiment was repeated three times and the data collated together.

collagenase = assay: IL-1 induced collagenase expression in chondrocytes (Northern blot); type: cell-based, bovine; conditions: 10^-6 M
Experimental: C-fos is an oncogene transcription factor shown to be involved and required for the induction of genes involved in cell proliferation and collagenase expression. […] When IL-1 is administered to chondrocytes in vitro there is a transient increase in fos mRNA levels which peak 30-60 minutes later, while collagenase mRNA is detected 9 hours later and continues to increase up to 12 hours (data not shown) after IL-1 stimulation. The fos and collagenase mRNA can be detected using the respective cDNA probes and analyzed by Northern blot analysis. This allows the determination of agents capable of inhibiting collagenase production and an approximation of the step in the collagenase synthetic pathway that is affected by the treatment.
The cells were then incubated for a further 16 hours. Total RNA from bovine articular chondrocytes was isolated by the acidified guanidine isothiocyanate method and the collagenase mRNA determined by Northern blot analysis. The RNA samples were prepared as described above using ^32 P-labeled rat collagenase cDNA.

synovial fibroblasts = assay: Synoviocyte proliferation (Trypan blue); type: cell-based, bovine; conditions: 24 hours
neutrophils [2] = assay: Neutrophil degranulation, myeloperoxidase release; type: cell-based, human; conditions: 28 μM, CPPD
Experimental: as §1
(§2) One and a half milliliter Eppendorf tubes containing either 25 mg of CPPD or 1 mg of zymosan were preheated to 37° C. 0.5 ml of cells at 37° C. were added followed by vigorous shaking to initiate the reactions.
Myeloperoxidase (MPO) activity was measured by the increase in absorbance at 450 nm that accompanies the oxidation of dianisidine. 7.8 mg of dianisidine was dissolved in 100 ml of 0.1M citrate buffer, pH 5.5 at […] by sonication. To a 1 ml cuvette, 0.89 mL of the dianisidine solution was added, followed by 50 μl of 1% Triton×100, 10 μl of a 0.05% hydrogen peroxide in water solution and 50 μl of crystal-cell supernatant.

[3] = Encapsulation of paclitaxel or baccatin in ELVAX:poly-l-lactic acid microspheres; type: physicochemical; conditions: for amount encapsulated: from 500 μg
Experimental: Microspheres are then prepared in a dissolution machine (Six-spindle dissolution tester, VanderKanp, Van Kell Industries Inc., U.S.A.) in triplicate at 200 rpm, 42° C., for 3 hours. Microspheres so prepared are washed twice in water and sized on the microscope.

normal chondrocytes = assay: Chondrocyte viability (Trypan blue); type: cell-based; conditions: 72 hours
neutrophils [4] = assay: Neutrophil degranulation, lysozyme release; type: cell-based, human; conditions: 28 μM, CPPD
Experimental: as §1, §2
Briefly, Micrococcuis lysodeikticzis was suspended at 0.1 mg/ml in 65 mM potassium phosphate buffer, pH 6.2 and the absorbance at 450 nm was adjusted to 0.7 units by dilution. The crystal (or zymosan) and cell supernatant (100 μl) was added to 2.5 ml of the Micrococcus suspension and the decrease in absorbance was monitored.

c-fos = c-fos expression in chondrocytes (Northern blot); type: cell-based, bovine; conditions: 10^-6 to 10^-8 M
Experimental: Human recombinant TNFα was dissolved in phosphate buffered saline (PBS) with 0.1% bovine serum albumin (BSA). Total RNA from bovine articular chondrocytes was isolated by the acidified guanidine isothiocyanate method and the levels of c-fos mRNA determined by Northern blot analysis. Denatured RNA samples (12 μg) were analyzed by gel electrophoresis in a denaturing 1% agarose gel, transferred to a nylon membrane (Bio-Rad), cross-linked with an ultraviolet cross-linker (Stratagene UV stratalinker 1800), and hybridized with ^32 P-labeled rat c-fos DNA. mRNA for tubulin and total RNA were used as controls. To determine tubulin mRNA, the blots described above were subsequently stripped of DNA and re-probed with ^32 P-labeled rat P-tubulin cDNA. This experimented was conducted three times and the data collated.

neutrophils [5] = assay: Neutrophil viability (LDH release); conditions: 46 μM, one hour, 37° C.
Experimental: (§3) Neutrophils were prepared from freshly collected human citrated whole blood. Briefly, 400 ml of blood were mixed with 80 ml of 4% dextran T500 (Pharmacia LKB, Biotechnology AB Uppsala, Sweden) in HBSS and allowed to settle for 1 h. Plasma was collected continuously and 5 ml applied to 5 ml of Ficoll Paque (Pharmacia) in 15 ml polypropylene tubes (Coming, N.Y.). Following centrifugation at 500×g for 30 min, the neutrophil pellets were washed free of erythrocytes by 20 s of hypotonic shock. Neutrophils were resuspended in HBSS, kept on ice and used for experiments within 3 h. Neutrophil viability and purity was always greater than 90%.
(§4) Cells were incubated for 20 minutes at 33° C. then for 10 minutes at 37° C. before addition to crystals or zymosan.

in vitro = conditions: human, neutrophils
Experimental: as §3, §4

neutrophils [6] = assay: Neutrophil superoxide anion generation; type: cell-based, human; conditions: 28 μM
Experimental: as §1
Superoxide anion concentrations were measured using the superoxide dismutase inhibitable reduction of cytochrome c assay. Briefly, 25 mg of crystals or 0.5 mg of zymosan was placed in a 1.5 ml capped Eppendorf tube and warmed to 37° C. 0.5 ml of cells at 37° C. were added together with ferricytochrome c (final concentration 1.2 mg/ml) and the cells were activated by shaking the capped tubes. […] Control tubes were set up under the same conditions with the inclusion of superoxide dismutase at 600 units per ml.

CC(=O)O[C@H]1C(=O)[C@@]2(C)[C@H]([C@H](OC(=O)c3ccccc3)[C@]3(O)C[C@H](OC(=O)[C@H](O)[C@@H](NC(=O)c4ccccc4)c4ccccc4)C(C)=C1C3(C)C)[C@]1(OC(C)=O)CO[C@@H]1C[C@@H]2O [paclitaxel]
inhibition of chemiluminescence over time (neutrophils [1]; 28 μM, CPPD and zymosan): significant at all times from 3 to 16 minutes | effect on chemiluminescence of controls (neutrophils [1]; all concentrations, no stimulus): no effect on the chemiluminescence values of controls | neutrophil activation (neutrophils [1]; crystal or particulate induced): strong inhibitor | minimal effective concentration (synoviocytes; 6 or 24 hours, read-out: lowest concentration inhibiting 3H-thymidine incorporation): ≤ 0.01 µM | inhibition of thymidine incorporation, high vs low concentrations (synoviocytes; 6 hours): no significant difference | inhibition of thymidine incorporation at low concentration (synoviocytes; 24 hours, 10^-8 M): some of the effect was lost at lower concentrations of the drug (10^-8 M), but was still substantially lower than that seen in control animals | collagenase mRNA (collagenase): not detectable above background | inhibition of IL-1 induced collagenase expression (collagenase): completely inhibited | toxicity to synovial fibroblasts (synovial fibroblasts; 10^-6 M and 10^-5 M): toxic to the synovial fibroblasts in vitro | cytotoxicity to proliferating synovial fibroblasts (synovial fibroblasts): cytotoxic to proliferating synovial fibroblasts in a concentration dependent manner | minimal effective concentration (synovial fibroblasts; Bos taurus, Fibroblast, read-out: lowest concentration inhibiting proliferation): ≤ 0.1 µM | myeloperoxidase release (neutrophils [2]): significantly inhibited CPPD induced myeloperoxidase release at all times | encapsulated, % by weight of the polymer ([3]; fluorescence): 1.5% | encapsulated, % of original weight ([3]; fluorescence): 15% | amount encapsulated ([3]; fluorescence): 75 µg | encapsulated, % by weight of the polymer ([3]; uv/vis): 1.2% | encapsulated, % of original weight ([3]; uv/vis): 12% | amount encapsulated ([3]; uv/vis): 58 µg | cytotoxicity to normal chondrocytes (normal chondrocytes): no cytotoxicity to normal chondrocytes | viability of normal chondrocytes (normal chondrocytes; up to 10^-5 M): does not affect the viability of normal chondrocytes | lysozyme release (neutrophils [4]): reduced lysozyme release | total RNA and tubulin expression (c-fos): similarly unaffected | c-fos expression (c-fos; TNF stimulated): does not alter c-fos expression at any concentration | cell death (neutrophils [5]): did not cause cell death | cytotoxicity at 1 h, 46 µM (in vitro): < 5% | superoxide anion production (neutrophils [6]; CPPD): decrease in the amount of superoxide generated at all times | superoxide anion production (neutrophils [6]; zymosan): less dramatic than the inhibition of CPPD activation but was significant at all times
